US6087366A (The Trustees of Columbia University in the City of New York, priority 1996, dated 2000)
Read-outs that look alike come from different tables or passages of the source.

Assays:
[1] = system: neuronally-differentiated PC12 cells; experiment: survival of neuronally-differentiated PC12 cells after NGF withdrawal; format: cell-based, rat; details: for EC (maximal): Rattus norvegicus
Procedure: (§1) For survival experiments, naive or neuronally-differentiated PC12 cells were washed extensively in serum-, NGF-free medium as previously described (6,24) and replated onto collagen-coated 24-well tissue culture dishes at a density of approximately 2×10^5 cells per well. The final volume of medium in each well, including all drugs was 1 ml. To allow time for blockade of DNA synthesis, naive PC12 cells were, in some cases, pretreated with drug for 16 hr prior to serum withdrawal. NGF-treated neuronally-differentiated cells were not pretreated with drug prior to serum deprivation. At appropriate times of culture under the desired conditions, cells were lysed and the numbers of viable cells were determined as previously described (24). The number of intact nuclei was determined by counting in a hemacytometer. All counts were performed in triplicate, and survival data are expressed as a percentage of cells plated on day 0+/-SEM.

rat sympathetic neurons = experiment: survival of rat sympathetic neurons after NGF withdrawal; format: cell-based; details: for survival of NGF-deprived sympathetic neurons: flavopiridol 1 μM, iso-olomoucine 200 μM
Procedure: The cells were plated in 0.5 ml of medium per well in collagen-coated 24-well dishes at a density of approximately 0.5 ganglia per well. […] To eliminate non-neuronal cells, a mixture of uridine and 5-fluorodeoxyuridine (10 μM each) were added to the cultures on the following day. […] The appropriate drug and/or NGF or anti-mouse NGF antibody (1:200 dilution) was added in a final volume of 0.5 ml of the same medium described above. At appropriate times, the numbers of viable, phase bright neurons were determined by strip counting as previously described (33). All survival data are expressed as relative to the original number of cells counted for each well. All experimental points were performed in triplicate and are reported as mean+/-SEM,

c-Jun kinase (JNK) [2] = experiment: c-Jun kinase activation in NGF-deprived neuronally-differentiated PC12 cells; format: cell-based, rat; details: flavopiridol 1 μM, olomoucine 200 μM
Procedure: (§2) c-Jun kinase (JNK) was affinity purified from PC12 cell extracts with GST-c-Jun (a gift from Dr. Michael Karin, University of California, San Diego) bound to GSH-agarose beads (Sigma) by methods previously described (34). c-Jun kinase activity was determined by an in vitro solid-phase kinase assay as described previously (34). Activated c-Jun kinase was isolated from PC12 cells treated with 0.5 mM sodium arsenite for 30 min. […] GST-c-Jun was resolved on a 8.5% SDS gel and incorporation of ^32 PO4 was quantified by autoradiography and densitometry.

c-Jun kinase (JNK) [3] = experiment: in vitro solid-phase kinase assay, phosphorylation of GST-c-Jun by activated JNK; format: biochemical, rat; details: for IC50: read-out: IC50, inhibition of GST-c-Jun phosphorylation by activated JNK in vitro
Procedure: as §2

[4] = survival of neuronally-differentiated PC12 cells after NGF withdrawal; format: cell-based, rat; details: rat; post-mitotic neuronally-differentiated PC12 cells, with NGF, day 3; read-out: death in the presence of NGF
Procedure: as §1

sympathetic neurons = experiment: rate of protein synthesis ([3H]-leucine incorporation) in sympathetic neurons; format: cell-based; details: Rattus norvegicus, Sympathetic neuron
Procedure: (§3) Neuronally-differentiated PC12 cells and sympathetic neurons were plated on 24-well dishes as described above. After the cultures were pretreated with the appropriate drug for 1 hr, 5 μCi [^3 H]-leucine was added per well and the cells were allowed to incorporate the isotope for 10 hr. The cultures were washed and prepared for scintillation counting as described above for thymidine incorporation. Background levels of radioactivity was determined by treating wells with 5 μg/ml cycloheximide. All experimental points were performed in triplicate and the data are presented relative to untreated control samples as mean+/-SEM.

naive PC12 cells [5] = experiment: survival of naive PC12 cells with or without serum; format: cell-based, rat; details: 16 hrs pretreatment, serum withdrawal
Procedure: as §1

[6] = survival of naive PC12 cells with or without serum; format: cell-based, rat; details: rat, naive pc12 cells; serum-containing medium, day 3; read-out: death of naive PC12 cells in the presence of serum
Procedure: as §1

[7] = system: neuronally-differentiated PC12 cells; experiment: rate of protein synthesis ([3H]-leucine incorporation) in neuronally-differentiated PC12 cells; format: cell-based, rat
Procedure: as §3

naive PC12 cells [8] = experiment: [3H]-thymidine incorporation by naive PC12 cells; format: cell-based, rat; details: compared with olomoucine
Procedure: Naive PC12 cells were plated in collagen-coated 24-well dishes at a density of 4×10^5 per well in RPMI 1640 medium containing 3 μM insulin (Sigma) or 10% horse serum and 5% fetal calf serum. […] The cells were pretreated with the appropriate drug for a period of 16 hr prior to the addition of 1 μCi per well of [^3 H]-thymidine (NEN Products, Dupont). The cells were exposed to thymidine for 1-2 hour and then washed three times with cold PBS. Each well was extracted with 1 ml of 10% TCA at 4° C. for 1 hr, and the insoluble material was solubilized overnight at room temperature with 0.3 ml 1N NaOH. After neutralization with an equal volume of 1 N HCl, the solution was quantified by scintillation counting. The level of background counts was determined by treating cells with 10 μM aphidicolin. All experimental points were performed in triplicate. All data are presented relative to untreated control samples as mean+/-SEM.

cdk1 = details: read-out: IC50, inhibition of cdk1 activity; cited from earlier work
GST-ERK1 = details: read-out: IC50, inhibition of GST-ERK1 activity in vitro; cited from earlier work
[9] = neuronally-differentiated PC12 cells

Structure (SMILES)	survival of NGF-deprived sympathetic neurons (rat sympathetic neurons)	level of JNK activation after NGF deprivation (c-Jun kinase (JNK) [2])	IC50 (c-Jun kinase (JNK) [3]) [µM]	protection from cell death after NGF withdrawal [1, 9]	cytotoxicity at 72 h [4] [%]	survival of serum-deprived naive PC12 cells (naive PC12 cells [5])	cytotoxicity at 72 h [6] [%]	also measured
COc1cccc(-c2cc(=O)c3ccccc3o2)c1N [PD 098059]								NGF-stimulated neurite regeneration ([1]; 20-100 μM, PC12 cells passaged into serum-free medium with NGF): effectively suppressed NGF-stimulated neurite regeneration; effect on NGF-promoted survival ([1]; 20-100 μM, naive or neuronally-differentiated PC12 cells, serum-free medium with or without NGF): neither blocked nor mimicked the capacity of NGF to promote survival
CN1CC[C@H](c2c(O)cc(O)c3c(=O)cc(-c4ccccc4Cl)oc23)[C@H](O)C1 [flavopiridol, (-) cis-5,7-dihydroxy-2-(2-chlorophenyl) -8[4-(3-hydroxy-1-methyl) -piperidinyl]-4H-benzopyran-4-one]	full survival for at least four days	did not decrease the level of JNK activation	> 12	good maintenance of survival even 5 days after NGF withdrawal	~20	died somewhat more quickly than control cells	75	effect on in vitro phosphorylation of GST-c-Jun (c-Jun kinase (JNK) [3]; 12 μM): no effect; effect on in vitro phosphorylation of GST-c-Jun (c-Jun kinase (JNK) [3]; 50 μM): significantly inhibited phosphorylation; EC (maximal) ([1]; PC-12, neuronally-differentiated PC12 cells, serum-free medium, read-out: concentration of maximal protection from death induced by NGF withdrawal): 1 µM; inhibition at 1 µM (sympathetic neurons): ~25%; inhibition at 1 µM ([7]; Rattus norvegicus, PC-12): ~25%
Cn1cnc2nc(NCCO)nc(NCc3ccccc3)c21 [iso-olomoucine]	ineffective			far less effective than olomoucine				inhibition of thymidine incorporation (naive PC12 cells [8]): far less effective than olomoucine; IC50 (cdk1): > 500 µM
Cn1cnc2c(NCc3ccccc3)nc(NCCO)nc21 [olomoucine, 2-(2-hydroxyethylamino) -6-benzylamino-9-methylpurine]		did not decrease the level of JNK activation	~100		~20	died at about the same rate as control cells	75	viability at 200 µM (rat sympathetic neurons; Rattus norvegicus, Sympathetic neuron, 168 h, read-out: neurons still viable): ~75%; IC50 (GST-ERK1): 30 µM; EC (maximal) ([1]; PC-12, read-out: concentration of maximal protection from death induced by NGF withdrawal): 200 µM; inhibition at 200 µM (sympathetic neurons): ~30%; effect on protein synthesis ([7]; PC12 cell cultures, 200 μM): no effect
